The structures appear in SMILES notation. Non-standard residues stand in square brackets, D forms with d. Residues, ends and D or L forms follow the SMILES beside them. *: point of attachment. sY = N[C@@H](Cc1ccc(OS(=O)(=O)O)cc1)C(=O)O; Cbz = O=C(OCc1ccccc1)*; Boc = CC(C)(C)OC(=O)*

Assay [1] concerns the target T1, CCK receptor (rat pancreas) (Rattus norvegicus, UniProt P30551).
T1 construct: The whole pancreas was dissected free of fat tissue and was homogenized; from tissue; host or cells: whole pancreas membranes, male Sprague-Dawley rat
T1 sequence (P30551 1-444): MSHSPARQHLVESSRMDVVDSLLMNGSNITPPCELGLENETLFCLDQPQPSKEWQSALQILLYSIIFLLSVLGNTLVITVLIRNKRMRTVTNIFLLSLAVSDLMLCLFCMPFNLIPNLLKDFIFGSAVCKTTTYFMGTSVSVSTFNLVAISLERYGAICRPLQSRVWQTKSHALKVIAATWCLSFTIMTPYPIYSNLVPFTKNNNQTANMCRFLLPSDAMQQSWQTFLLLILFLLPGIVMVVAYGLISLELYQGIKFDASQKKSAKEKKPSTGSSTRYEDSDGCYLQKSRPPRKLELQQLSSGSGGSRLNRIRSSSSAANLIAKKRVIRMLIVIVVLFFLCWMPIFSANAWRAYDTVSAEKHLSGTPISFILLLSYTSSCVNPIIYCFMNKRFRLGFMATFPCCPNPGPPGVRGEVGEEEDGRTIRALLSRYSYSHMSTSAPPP
In words: CCK Receptor Binding (Pancreas), 125I-CCK-8 displacement. Further details: species or system rat (male Sprague-Dawley). Here is the method: 1. CCK Receptor Binding (Pancreas)
CCK-8 sulphated was radiolabelled with ^125 I-Bolton Hunter reagent (2000 Ci/mmole). Receptor binding was performed according to Chang and Lotti (Proc. Natl. Acad. Sci. 83, 4923-4926, 1986) with minor modifications.
Male Sprague-Dawley rats (150-200 g) were sacrificed by decapitation. The whole pancreas was dissected free of fat tissue and was homogenized in 25 volumes of ice-cold 10 mM Hepes buffer with 0.1% soya bean trypsin inhibitor (pH 7.4 at 25° C.) with a Kinematica Polytron. The homogenates were centrifuged at 47,800 g for 10 min. Pellets were resuspended in 10 volumes of binding assay buffer (20 mM Hepes, 1 mM EGTA, 5 mM MgCl2, 150 mM NaCl, bacitracin 0.25 mg/ml, soya bean trypsin inhibitor 0.1 mg/ml, and bovine serum albumin 2 mg/ml, pH 6.5 at 25° C.) using a teflon homogenizer, 15 strokes at 500 rpm. The homogenate was further diluted in binding assay buffer to give a final concentration of 0.5 mg original wet weight/1 ml buffer. […] All assays were run in duplicate. […] The radioactivity on the filters was counted with a LKB gamma counter. […]
(§1) Drug displacement studies were performed with at least 10 concentrations of compounds of formula 1 and the IC50 values were determined by regression analysis.

For assay [2], the target named is T2, CCK receptor (guinea pig brain cortex) (Cavia porcellus, UniProt H0VZC5).
T2 construct: the cortex was removed and homogenized in 25 mL ice-cold 0.32M sucrose; from tissue; host or cells: brain cortex P2 membranes, male Hartley guinea pig
T2 sequence (H0VZC5 1-426): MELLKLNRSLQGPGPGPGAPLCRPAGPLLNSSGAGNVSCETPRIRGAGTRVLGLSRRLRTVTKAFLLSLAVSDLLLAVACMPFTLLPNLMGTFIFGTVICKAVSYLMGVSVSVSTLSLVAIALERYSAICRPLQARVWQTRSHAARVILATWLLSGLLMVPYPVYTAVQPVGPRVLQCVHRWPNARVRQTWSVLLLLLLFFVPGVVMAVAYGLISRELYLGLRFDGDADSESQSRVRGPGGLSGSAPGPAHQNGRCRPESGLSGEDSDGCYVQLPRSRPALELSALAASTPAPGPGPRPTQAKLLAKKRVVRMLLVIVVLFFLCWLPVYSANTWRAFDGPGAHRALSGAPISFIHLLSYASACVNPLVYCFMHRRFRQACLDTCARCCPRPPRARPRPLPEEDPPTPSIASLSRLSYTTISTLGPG
As to the kind of experiment: CCK Receptor Binding (Brain), 125I-CCK-8 displacement. Further details: species or system guinea pig (male Hartley). Particulars: guinea pig cortex membranes, 50 pM 125I-CCK-8, 25° C., 2 hours, pH 6.5. Here is the method: 2. CCK Receptor Binding (Brain)
CCK-8 sulphated was radiolabelled and the binding was performed according to the description for the pancreas method with minor modifications.
Male Hartley guinea pigs (300-500 g) were sacrificed by decapitation and the cortex was removed and homogenized in 25 mL ice-cold 0.32M sucrose. The homogenates were centrifuged at 1000 g for 10 minutes and the resulting supernatant was recentrifuged at 20,000 g for 20 minutes. […] All assays were run in duplicate. The reaction mixtures were incubated at 25° C. for 2 hours and then the reaction was terminated on Whatman GF/C filters by rapid filtration (Brandell 24 well cell Harvester) with 3×5 ml washes of cold 100 mM NaCl. The radioactivity on the filters was then counted with a LKB gamma counter.
Effect of The Compounds of Formula I on ^125 I-CCK-8 receptor binding
as §1

The next assay concerns CCK receptor. Particulars: literature, in words; cited from earlier work.
The test system of another assay is gastrin. Particulars: literature, in words; cited from earlier work.
For a further assay, the system named is CCK-B receptors. The settings on record: literature, in words; cited from earlier work.

For the compound `Cc1cccc(NC(=O)N(CCC(=O)O)C2N=C(c3ccccc3)c3ccccc3N(C)C2=O)c1` (stereo not shown) [Example 2, N-{1,3-Dihydro-1-methyl-2-oxo-5-phenyl-1H-1,4-benzodiazepin-3-yl}-N-carboxyethyl-N'-{[3-methylphenyl]-urea}], the IC50 (in general, the point on the concentration scale where inhibition reaches its midpoint) in assay [1] is above 3 µM; in assay [2] it was 0.51 µM.
Turning to `CCCC(=O)Nc1nc2c(ncn2C2O[C@H]3COP(=O)(O)O[C@@H]3[C@@H]2OC(=O)CCC)c(=O)[nH]1` (stereo partly shown) [dibutyryl cyclic GMP], the CCK antagonist/agonist character entry in the assay with CCK receptor is listed as “most potent”.
Regarding `CCCN(CCC)C(=O)C(CCC(=O)O)NC(=O)c1ccccc1` (stereo not shown) [proglumide], the “gastrin antagonism in vitro” value in the assay on gastrin was “very weak in vitro antagonists”.
On to `CSCC[C@H](N)C(=O)N[C@@H](CC(=O)O)C(=O)N[C@@H](Cc1ccccc1)C(N)=O` [Met-Asp-Phe-NH2] (H-Met-Asp-Phe-NH2), for which, in the assay on CCK receptor, the CCK antagonist/agonist character entry is on record as “can function as CCK antagonists”.
Regarding `Cc1cccc(NC(=O)N[C@@H]2N=C(c3ccccc3)c3ccccc3N(C)C2=O)c1` [(R)-N-(2,3-dihydro-1-methyl-2-oxo-5-phenyl-1H-1,4-benzodiazepin-3-yl)-N^1-(3-methylphenyl) urea], the “CCK-B antagonist potency and selectivity” value with CCK-B receptors was “potent and selective antagonist of CCK-B receptors”.
As to `CSCC[C@H](NC(=O)OC(C)(C)C)C(=O)N[C@@H](CC(=O)O)C(=O)N[C@@H](Cc1ccccc1)C(N)=O` [Boc-Met-Asp-Phe-NH2] (Boc-Met-Asp-Phe-NH2), in the assay with CCK receptor, the CCK antagonist/agonist character entry is given as “can function as CCK antagonists”.
Turning to `CSCC[C@H](NC(=O)[C@H](Cc1ccc(OS(=O)(=O)O)cc1)NC(=O)OCc1ccccc1)C(=O)NCC(=O)N[C@@H](Cc1c[nH]c2ccccc12)C(=O)N[C@@H](CCSC)C(=O)N[C@@H](CC(=O)O)C(N)=O` [Cbz-Tyr(SO3 H)-Met-Gly-Trp-Met-Asp-NH2] (Cbz-[sY]MGWMD-NH2), the CCK antagonist/agonist character entry in the assay with CCK receptor is “partial agonist”.
`Cc1cccc(N(CCC(=O)O)C(=O)NC2N=C(c3ccccc3)c3ccccc3N(C)C2=O)c1` (stereo not shown) [Example 1, N-{1,3-Dihydro-1-methyl-2-oxo-5-phenyl-1H-1,4-benzodiazepin-3-yl}-N'-carboxyethyl-N'-{[3-methylphenyl]-urea}]: the IC50 in assay [1] was above 3 µM; in assay [2] it was 3.68 µM.

(Values after patent publication US5220017A, “Cholecystokinin antagonists” (Merck & Co., Inc., priority 1992, dated 1993).)
